Data taken from BindingDB's records for doi:10.1016/S0960-894X(01)80421-2 (1993).

Biological target: Chorismate synthase (Escherichia coli) (UniProt P12008)
Assay: Compound was evaluated for the binding affinity towards Escherichia coli chorismate synthase

Chain of Chorismate synthase (Escherichia coli) (P12008 whole entry, looked up): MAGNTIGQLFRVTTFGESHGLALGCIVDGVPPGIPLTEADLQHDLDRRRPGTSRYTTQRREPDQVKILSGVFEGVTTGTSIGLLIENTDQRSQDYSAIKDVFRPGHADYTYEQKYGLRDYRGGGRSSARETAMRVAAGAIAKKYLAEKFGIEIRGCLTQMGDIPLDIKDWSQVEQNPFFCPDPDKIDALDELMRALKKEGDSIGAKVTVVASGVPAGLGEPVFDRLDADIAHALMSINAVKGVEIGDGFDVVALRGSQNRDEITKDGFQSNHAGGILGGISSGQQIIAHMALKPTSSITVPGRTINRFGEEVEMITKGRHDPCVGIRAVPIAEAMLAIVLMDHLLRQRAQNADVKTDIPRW

## Cc1cc2nc3c(=O)[nH]c(=O)nc-3n(C[C@H](O)[C@H](O)[C@H](O)COP(=O)(O)O)c2cc1C [E101a]
  Kd: > 20 µM
